Tests used:
Assay type in all cases: cell-based
[1] = system: Human dermal fibroblasts from Friedreich's Ataxia patients; assay: Rescue of BSO-stressed FRDA fibroblasts (Calcein AM viability); conditions: BSO-stressed FRDA fibroblasts (GM04078), less than about 150 nM, read-out: EC50, protection against FRDA
How it was run: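 Patient FRDA fibroblasts (GM04078) seeded at 3,000 cells/well, given serially diluted compound from a 150 μM master solution, then stressed next day with 1 mM BSO.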

[2] = system: human dermal fibroblasts from Huntington's patients; assay: Rescue of BSO-stressed fibroblasts from Huntington's patients (screen as Example A); conditions: Fibroblast, BSO-stressed Huntington's fibroblasts (GM 04281), less than about 150 nM, read-out: EC50, protection against Huntington's
How it was run: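 Coriell Huntington's line GM 04281 plated at 3,000 cells/well and attached overnight at 37 °C. Survival was read by Calcein AM (1.2 μM, 50-70 min, RT) fluorescence at 485/525 nm, giving EC50.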

[3] = system: human dermal fibroblasts from LHON patients; assay: Rescue of BSO-stressed fibroblasts from LHON patients (screen as Example A); conditions: Fibroblast, BSO-stressed LHON fibroblasts (GM03858), less than about 150 nM, read-out: EC50, protection against LHON
How it was run: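 LHON patient fibroblasts (Coriell GM03858) at 3,000 cells/well were pre-treated overnight with compounds serially diluted from a 150 μM master solution. Surviving cells were stained with 1.2 μM Calcein AM for 50-70 min at RT and read by fluorescence (485/525 nm), giving EC50.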

[4] = system: human dermal fibroblasts from Parkinson's Disease patients; assay: Rescue of BSO-stressed fibroblasts from Parkinson's Disease patients (screen as Example A); conditions: Fibroblast, BSO-stressed Parkinson's Disease fibroblasts (AG20439), less than about 150 nM, read-out: EC50, protection against PD
Method: (§1) A culture with FRDA fibroblasts was started from a 1 ml vial with approximately 500,000 cells stored in liquid nitrogen. Cells were propagated in 10 cm cell culture dishes by splitting every third day in a ratio of 1:3 until nine plates were available. Once confluent, fibroblasts were harvested. For 54 micro titer plates (96 well-MTP) a total of 14.3 million cells (passage eight) were re-suspended in 480 ml medium, corresponding to 100 μl medium with 3,000 cells/well. The remaining cells were distributed in 10 cm cell culture plates (500,000 cells/plate) for propagation. The plates were incubated overnight at 37° C. in an atmosphere with 95% humidity and 5% CO2 to allow attachment of the cells to the culture plate.
(§2) MTP medium (243 μl) was added to a well of the microtiter plate. The test compounds were unfrozen, and 7.5 μl of a 5 mM stock solution was dissolved in the well containing 243 μl medium, resulting in a 150 μM master solution. Serial dilutions from the master solution were made. The period between the single dilution steps was kept as short as possible (generally less than 1 second).
(§3) Plates were kept overnight in the cell culture incubator. The next day, 10 μl of a 10 mM BSO solution were added to the wells, resulting in a 1 mM final BSO concentration. Forty-eight hours later, three plates were examined under a phase-contrast microscope to verify that the cells in the 0% control (wells E1-H1) were clearly dead. The medium from all plates was discarded, and the remaining liquid was removed by gently tapping the plate inversed onto a paper towel.
(§4) 100 μl of PBS containing 1.2 μM Calcein AM were then added to each well. The plates were incubated for 50-70 minutes at room temperature. After that time the PBS was discarded, the plate gently tapped on a paper towel and fluorescence (excitation/emission wavelengths of 485 nm and 525 nm, respectively) was read on a Gemini fluorescence reader. Data was imported into Microsoft Excel (EXCEL is a registered trademark of Microsoft Corporation for a spreadsheet program) and used to calculate the EC50 concentration for each compound.
Compounds of the invention were screened as described in Example A, but substituting FRDA cells with Parkinson's Disease (PD) cells obtained from the Coriell Cell Repositories (Camden, N.J.; repository number AG20439). The compounds were tested for their ability to rescue human dermal fibroblasts from Parkinson's Disease patients from oxidative stress.

[5] = system: human dermal fibroblasts from CoQ10 deficient patients; assay: Rescue of BSO-stressed fibroblasts from CoQ10 deficient patients (screen similar to Example A); conditions: Fibroblast, BSO-stressed fibroblasts from CoQ10 deficient patients harboring a CoQ2 mutation, less than about 150 nM, read-out: EC50, protection against CoQ10 deficiency
Method: as §1, §2, §3, §4
Compounds of the invention were tested using a screen similar to the one described in Example A, but substituting FRDA cells with cells obtained from CoQ10 deficient patients harboring a CoQ2 mutation. The compounds were tested for their ability to rescue human dermal fibroblasts from CoQ10 deficient patients from oxidative stress.

Measured: EC50

CC1=C(C)C(=O)C(CCC(C)(C)C(N)=O)=C(C)C1=O [2,2-dimethyl-4-(2,4,5-trimethyl-3,6-dioxocyclohexa-1,4-dienyl)butanamide]
< 150 nM: all assays above

CC1=C(C)C(=O)C(CCCC(=O)N2CCc3ccccc3C2)=C(C)C1=O [2-(4-(3,4-dihydroisoquinolin-2(1H)-yl)-4-oxobutyl)-3,5,6-trimethylcyclohexa-2,5-diene-1,4-dione]
< 150 nM: all assays above

CC1=C(C)C(=O)C(CCCC(=O)N2CCc3ccccc32)=C(C)C1=O [2-(4-(indolin-1-yl)-4-oxobutyl)-3,5,6-trimethylcyclohexa-2,5-diene-1,4-dione]
< 150 nM: all assays above

CC1=C(C)C(=O)C(CCCC(=O)N2Cc3ccccc3C2)=C(C)C1=O [2-(4-(isoindolin-2-yl)-4-oxobutyl)-3,5,6-trimethylcyclohexa-2,5-diene-1,4-dione]
< 150 nM: all assays above

CC1=C(C)C(=O)C(CCCC(N)=O)=C(C)C1=O [4-(2,4,5-trimethyl-3,6-dioxocyclohexa-1,4-dienyl)butanamide]
< 150 nM: all assays above

CC1=C(C)C(=O)C(CCCC(=O)Nc2ccc3c(c2)OCCO3)=C(C)C1=O [N-(2,3-dihydrobenzo[b][1,4]dioxin-6-yl)-4-(2,4,5-trimethyl-3,6-dioxocyclohexa-1,4-dienyl)butanamide]
not listed: [4]
< 150 nM: all other assays above

CC1=C(C)C(=O)C(CCCC(=O)Nc2ccc(Cl)cc2N)=C(C)C1=O [N-(2-amino-4-chlorophenyl)-4-(2,4,5-trimethyl-3,6-dioxocyclohexa-1,4-dienyl)butanamide]
< 150 nM: all assays above

CC1=C(C)C(=O)C(CCCC(=O)NCc2ccccc2Cl)=C(C)C1=O [N-(2-chlorobenzyl)-4-(2,4,5-trimethyl-3,6-dioxocyclohexa-1,4-dienyl)butanamide]
< 150 nM: all assays above

CC1=C(C)C(=O)C(CCCC(=O)NCCc2ccccc2Cl)=C(C)C1=O [N-(2-chlorophenethyl)-4-(2,4,5-trimethyl-3,6-dioxocyclohexa-1,4-dienyl)butanamide]
< 150 nM: all assays above

CC1=C(C)C(=O)C(CCCC(=O)Nc2ccccc2Cl)=C(C)C1=O [N-(2-chlorophenyl)-4-(2,4,5-trimethyl-3,6-dioxocyclohexa-1,4-dienyl)butanamide]
< 150 nM: all assays above

CC1=C(C)C(=O)C(CCCC(=O)NCc2ccccc2F)=C(C)C1=O [N-(2-fluorobenzyl)-4-(2,4,5-trimethyl-3,6-dioxocyclohexa-1,4-dienyl)butanamide]
< 150 nM: [2] | [4] | [5]

CC1=C(C)C(=O)C(CCCC(=O)NCCc2ccccc2F)=C(C)C1=O [N-(2-fluorophenethyl)-4-(2,4,5-trimethyl-3,6-dioxocyclohexa-1,4-dienyl)butanamide]
< 150 nM: all assays above

CC1=C(C)C(=O)C(CCCC(=O)Nc2ccccc2F)=C(C)C1=O [N-(2-fluorophenyl)-4-(2,4,5-trimethyl-3,6-dioxocyclohexa-1,4-dienyl)butanamide]
< 150 nM: all assays above

COc1ccccc1NC(=O)CCCC1=C(C)C(=O)C(C)=C(C)C1=O [N-(2-methoxyphenyl)-4-(2,4,5-trimethyl-3,6-dioxocyclohexa-1,4-dienyl)butanamide]
< 150 nM: all assays above

COc1ccc(NC(=O)CCCC2=C(C)C(=O)C(C)=C(C)C2=O)cc1OC [N-(3,4-dimethoxyphenyl)-4-(2,4,5-trimethyl-3,6-dioxocyclohexa-1,4-dienyl)butanamide]
< 150 nM: all assays above

CC1=C(C)C(=O)C(CCCC(=O)NCc2cccc(Cl)c2)=C(C)C1=O [N-(3-chlorobenzyl)-4-(2,4,5-trimethyl-3,6-dioxocyclohexa-1,4-dienyl)butanamide]
not listed: [1]
< 150 nM: all other assays above

CC1=C(C)C(=O)C(CCCC(=O)NCCc2cccc(Cl)c2)=C(C)C1=O [N-(3-chlorophenethyl)-4-(2,4,5-trimethyl-3,6-dioxocyclohexa-1,4-dienyl)butanamide]
not listed: [1]
< 150 nM: all other assays above

CC1=C(C)C(=O)C(CCCC(=O)Nc2cccc(Cl)c2)=C(C)C1=O [N-(3-chlorophenyl)-4-(2,4,5-trimethyl-3,6-dioxocyclohexa-1,4-dienyl)butanamide]
< 150 nM: all assays above

CC1=C(C)C(=O)C(CCCC(=O)Nc2cccc(C#N)c2)=C(C)C1=O [N-(3-cyanophenyl)-4-(2,4,5-trimethyl-3,6-dioxocyclohexa-1,4-dienyl)butanamide]
not listed: [4]
< 150 nM: all other assays above

CC1=C(C)C(=O)C(CCCC(=O)NCc2cccc(F)c2)=C(C)C1=O [N-(3-fluorobenzyl)-4-(2,4,5-trimethyl-3,6-dioxocyclohexa-1,4-dienyl)butanamide]
< 150 nM: [2] | [4] | [5]

CC1=C(C)C(=O)C(CCCC(=O)NCCc2cccc(F)c2)=C(C)C1=O [N-(3-fluorophenethyl)-4-(2,4,5-trimethyl-3,6-dioxocyclohexa-1,4-dienyl)butanamide]
< 150 nM: all assays above

CC1=C(C)C(=O)C(CCCC(=O)Nc2cccc(F)c2)=C(C)C1=O [N-(3-fluorophenyl)-4-(2,4,5-trimethyl-3,6-dioxocyclohexa-1,4-dienyl)butanamide]
not listed: [4]
< 150 nM: all other assays above

CC1=C(C)C(=O)C(CCCC(=O)NCC2(O)CC2)=C(C)C1=O [N-((1-hydroxycyclopropyl)methyl)-4-(2,4,5-trimethyl-3,6-dioxocyclohexa-1,4-dienyl)butanamide]
not listed: [4]
< 150 nM: all other assays above

CC1=C(C)C(=O)C(CCCC(=O)NCc2ccccc2)=C(C)C1=O [N-benzyl-4-(2,4,5-trimethyl-3,6-dioxocyclohexa-1,4-dienyl)butanamide]
not listed: [1]
< 150 nM: all other assays above

— patent publication US9090576B2, “2-substituted-p-quinone derivatives for treatment of oxidative stress diseases” (Edison Pharmaceuticals, Inc., priority 2008, dated 2015)
